Data: US7135303B2, “Regulators of type-1 tumor necrosis factor receptor and other cytokine receptor shedding” (The United States of America as represented by the …, priority 2000, dated 2006)
“Also recorded” adds a separate entry of the source.

B1: ARTS-1: aminopeptidase regulator of type I, 55 kDa tumor necrosis factor receptor ectodomain shedding; 941 amino acids, SEQ ID NO:2; overexpressed from pTarget (protein, listed as Homo sapiens)
chain: MVFLPLKWSLATMSFLLSSLLALLTVSTPSWCQSTEASPKRSDGTPFPWNKIRLPEYVIPVHYDLLIHANLTTLTFWGTTKVEITASQPTSTIILHSHHLQISRATLRKGAGERLSEEPLQVLEHPRQEQIALLAPEPLLVGLPYTVVIHYAGNLSETFHGFYKSTYRTKEGELRILASTQFEPTAARMAFPCFDEPAFKASFSIKIRREPRHLAISNMPLVKSVTVAEGLIEDHFDVTVKMSTYLVAFIISDFESVSKITKSGVKVSVYAVPDKINQADYALDAAVTLLEFYEDYFSIPYPLPKQDLAAIPDFQSGAMENWGLTTYRESALLFDAEKSSASSKLGITMTVAHELAHQWFGNLVTMEWWNDLWLNEGFAKFMEFVSVSVTHPELKVGDYFFGKCFDAMEVDALNSSHPVSTPVENPAQIREMFDDVSYDKGACILNMLREYLSADAFKSGIVQYLQKHSYKNTKNEDLWDSMASICPTDGVKGMDGFCSRSQHSSSSSHWHQEGVDVKTMMNTWTLQKGFPLITITVRGRNVHMKQEHYMKGSDGAPDTGYLWHVPLTFITSKSDMVHRFLLKTKTDVLILPEEVEWIKFNVGMNGYYIVHYEDDGWDSLTGLLKGTHTAVSSNDRASLINNAFQLVSIGKLSIEKALDLSLYLKHETEIMPVFQGLNELIPMYKLMEKRDMNEVETQFKAFLIRLLRDLIDKQTWTDEGSVSERMLRSQLLLLACVHNYQPCVQRAEGYFRKWKESNGNLSLPVDVTLAVFAVGAQSTEGWDFLYSKYQFSLSSTEKSQIEFALCRTQNKEKLQWLLDESFKGDKIKTQEFPQILTLIGRNPVGYPLAWQFLRKNWNKLVQKFELGSSSIAHMVMGTTNQFSTRTRLEEVKGFFSSLKENGSQLRCVQQTIETIEENIGWMDKNFDKIRVWLQSEKLERM
notes: aminopeptidase regulator of type I, 55 kDa tumor necrosis factor receptor ectodomain shedding; overexpressed from pTarget

What was measured:
Type in all cases: cell-based, human
[1] = tested on: ARTS-1 protein in NCI-H292 cells; assay: Drug screening: ARTS-1 protein expression by Western immunoblot of membrane protein fractions; details: 0.1 μM PMA, 0 to 24 hours, membrane protein fraction
Method: In another embodiment of the screening method of the present invention, Western immunoblotting is used to assess the levels of ARTS-1 protein following exposure of a cell culture to a test compound. In this embodiment, cultured cells were exposed to a test compound, in this case, 4b-phorbol 12-myristate 13-acetate (PMA), and samples of tissue were collected at 0, 2, 8 and 24 hours following the exposure. Membrane proteins were isolated from these cells and subjected to Western immunoblot analysis, as described in Examples 4 and 5, using antiserum specific for the ARTS-1 protein. […] It is contemplated that compounds that can upregulate ARTS-1 protein levels are therapeutically advantageous, as such compounds can suppress a proinflammatory immune response by enhancing receptor ectodomain shedding. However, an understanding of the mechanism(s) is not required in order to use the present invention. […]
In the first method, cultured human NCI-H292 pulmonary mucoepidermoid carcinoma cells were exposed to a test compound, in this case, 4b-phorbol 12-myristate 13-acetate (PMA) at a concentration of 0.1 μM. […] The protein samples were analyzed in a Western immunoblot using the anti-ARTS-1 antiserum at the primary detection antibody, as described in Examples 4 and 5. The protein fractions were analyzed in duplicate, and the relative densitometry units for each lane are shown beneath the columns. […]

[2] = tested on: TNFR1 ectodomain shedding in NCI-H292 cells; assay: TNFR1 ectodomain shedding assay (sTNFR1 sandwich ELISA of cell culture supernatants); details: for sTNFR1 in cell culture supernatant following PMA treatment: 24 hours
Method: The amount of TNFR1 ectodomain shedding occurring in each of these cell lines is depicted in FIG. 8. The levels of sTNFR1 ectodomain in cell culture supernatants from these cell lines were assayed using a commercially available sandwich-enzyme-linked immunosorbent assay (ELISA) technique (R & D Systems) with a lower limit of detection of 7.8 pg/ml.
Following the introduction and selection of these constructs in the host cell lines, the amount of TNFR1 ectodomain shedding occurring in each of the lines was determined by measuring the levels of sTNFR1 ectodomain in cell culture supernatants using a commercially available sandwich-enzyme-linked immunosorbent assay (ELISA) technique (R & D Systems) with a lower limit of detection of 7.8 pg/ml.
The amount of TNFR1 ectodomain shedding occurring in each of the stably transfected cell lines described in Example 9 was assessed. The levels of sTNFR1 ectodomain in cell culture supernatants from these cell lines were assayed by a commercially available sandwich-enzyme-linked immunosorbent assay (ELISA) technique (R & D Systems) with a lower limit of detection of 7.8 pg/ml. The protocol used was according to the manufacturer's instructions. The results of this assay are depicted in FIG. 8 as the mean of 5 independent experiments, with accompanying SEM (standard error of the mean) indicated above the bar.
A similar experiment analyzing the ability of ARTS-1 overexpression to potentiate the cleavage and shedding of TNFR ectodomain from the surface of NCI-H292 cells in response to PMA stimulation using these same cell lines is shown in FIG. 9.
This assay was further used to measure the sTNFR1 ectodomain shedding activity of ARTS-1 peptidase/protease catalytic mutants. The construction of these mutations (and resulting mutant cell lines) are described in Example 10. The ability of theses mutants to regulate sTNFR1 shedding was ascertained by measuring the concentration of sTNFR1 in the cell culture supernatant as described above in this Example.
Results from a second screening method are illustrated in FIG. 14, Panel B. In this screening method, cultured human NCI-H292 pulmonary mucoepidermoid carcinoma cells were again exposed to a test compound, PMA, at a concentration of 0.1 μM. Culture medium supernatant was collected from the cultures at intervals between 0 and 24 hours post treatment. The samples were analyzed by the TNFR1 ectodomain shedding assay using an ELISA as described in Example 11. In this assay, anti-sTNFR1 antibody was used to quantitate the concentrations of sTNFR1 in the cell culture supernatants. […] Thus, this screening method also identified a compound that is a candidate for further drug development.

[3] = tested on: membrane-associated TNFR1 in NCI-H292 cells; assay: Membrane-associated TNFR1 by Western immunoblot of crude membrane fractions of stably transfected cells
Method: The degree of TNFR1 ectodomain shedding as a function of ARTS-1 protein expression was also assessed indirectly by determining the relative amounts of membrane-bound TNFR1 fragment in each of the stably transfected cell lines described above using the Western immunoblotting technique described in Example 5. Crude membrane fractions from the stably transfected NCI-H292 cells described in Example 9 were prepared and resolved by SDS-PAGE and analyzed by Western immunoblotting using a murine anti-human TNFR1 monoclonal primary antibody (R & D System) which detects the membrane fragment of the TNF receptor.
The degree of TNFR1 ectodomain shedding as a function of ARTS-1 protein expression was also indirectly assessed by determining the relative amounts of membrane-bound TNFR1 fragment in each of the stably transfected cell lines described in Example 9 using Western immunoblotting.
Crude membrane fractions from the stably transfected NCI-H292 cells described in Example 9 were prepared and protein concentrations were quantitated, as described above. Samples from these membrane-derived protein preparations were resolved by SDS-PAGE and analyzed by Western immunoblotting as described above in Example 5 using a murine anti-human TNFR1 monoclonal primary antibody which detected the membrane fragment of the receptor (R & D System). […]

Row | Molecule | ARTS-1 protein expression [1] | sTNFR1 in cell culture supernatant following PMA treatment ([2]; 0.1 μM PMA, NCI-H292 cell line containing only the empty pTarget vector) | sTNFR1 in cell culture supernatant following PMA treatment ([2]; 0.1 μM PMA, NCI-H292 cell line overexpressing the ARTS-1 cDNA) | sTNFR1 shedding compared to a control culture ([2]; NCI-H292 cells, 0.1 μM PMA, over the course of 24 hours, n=5, P<0.05) | increase in sTNFR1 shedding ([2]; overexpression of ARTS-1 protein in stably transfected NCI-H292 cells vs Mock or WT controls) | level of sTNFR1 in cell culture supernatant compared to control cell lines (WT, Mock) ([2]; stably transfected NCI-H292 cell lines, mean of 5 independent experiments) | membrane-associated TNFR1 relative to WT or Mock cell lines [3]
1 | CCCCCCCCCCCCCC(=O)O[C@@H]1[C@@H](C)[C@@]2(O)[C@@H](C=C(CO)C[C@]3(O)C(=O)C(C)=C[C@@H]23)[C@@H]2C(C)(C)[C@]12OC(C)=O [PMA, 4b-phorbol 12-myristate 13-acetate] | upregulation of ARTS-1 protein expression; also recorded: increase in ARTS-1 protein expression | 415.3 ± 4.5 pg/mL | 914.2 ± 9.5 pg/mL | increase in sTNFR1 shedding | – | – | –
2 | B1 | – | – | – | – | approximately 200% | significant increase; also recorded: significantly elevated level of sTNFR1 | decrease
